Results published in patent US20240082221A1, “COMPOSITIONS AND METHODS FOR THE IDENTIFICATION OF COMPOUNDS THAT PROTECT AGAINST LIPOFUSCIN CYTOTOXICITY” (priority 2021, published 2024).

Legend:
human MLKL = assay: Western blot of Ser358 phospho-MLKL, phosphorylation and polymerization of MLKL; assay type: cell-based; settings: non-reducing conditions, cells with A2E/ATRD
Procedure: Immunoblotting. Total cell lysates were extracted using RIPA lysis buffer (50 mM TrisHCl, Ph 8.0, 150 mM NaCl, 1% NP40, 0.5% Sodium Deoxycholate, 0.1% SDS, protease-phosphatase inhibitor) after the incubation of the specific sample group in a 48 well plate. Sonication or syringing (20 times) was done followed by centrifugation at 12,000×g for 10 mins and the supernatant was collected and stored in −80° C. Proten concentration from homogenates were assessed by Pierce Rapid Gold BCA protein assay kit (ThermoFisher Scientific, cat.no. A53225). Then 30 μg of protein was analyzed by standard SDS-PAGE gel. Samples were mixed 4:1 (v:v) with Nupage loading buffer with or without 8% 0-mercaptoethanol and heated for 10 min at 72° C. SDS-PAGE was done using 4-12% Nupage gel and buffer (Life, NP0335BOX). Next, SDS-PAGE gel was transferred to nitrocellulose membrane (Whatman, PROTAN BA83) overnight at 20V. The following day, 5% milk in TBS was used for 2 h blocking the membrane and then primary antibody was added in TBST (TBS, 0.1% Tween-20) for overnight at 4° C. Next day membranes were washed and incubated for 2 hours at room temperature with HRP conjugated secondary antibody (cat #G21234, Invitrogen) at 1:10,000 dilution. After 3 more washed membranes were probed with enhanced chemiluminescence (ECL) reagent and detected using an X-ray films for chemiluminescence image (GE healthcare, RPN2106). Scanning/imaging and quantitation of the image was done using silverfast 8 application software and Fiji Image J. Antibodies for Western blotting were list in FIG. 10.
For its phosphorylation, MLKL and its kinase need to be recruited into multiprotein complexes, known as necrosomes (FIG. 4O). Necrosomes are not well conserved among species and vary also with the nature of the stimuli that triggers their formation. […] Considering that phosphorylation of human MLKL at Ser358 (pMLKL), is a hallmark triggering event and marker of necroptosis, the Ser358-phosphorylation and polymerization status of MLKL in cells with LF was determined. […] A prerequisite for the assembly of these RIP kinases into necrosomes was their phosphorylation.

[1] = test system: activated microglia/macrophages; assay: Intravitreal treatment of DKO mice, subretinal microglia/macrophage infiltration; assay type: in vivo, ABCA4−/− RDH8−/− double knock-out mice (DKO)
Procedure: Animals. Pigmented ABCA4^−/− RDH8^−/− double knock-out mice (DKO), free of rd8 mutation, were purchased from Jackson laboratories and every 10 generations were in house backcrossed to the C57BL6J control strain, to prevent genetic drifts. Genotyping was performed at Transnetyx (Memphis, TN). Only mice with ABCA4, RDH8, RPE65-Leu450 but no crb1 mutations (retinal degeneration slow) were maintained in the colony. Controls C57BL/6J (Rpe65-Leu450, crb1negative) were also Jackson's lab. All mice were housed at Weill Cornell Medicine's animal facility under a 12 h light (˜10 lux)/12 h dark cycle environment or under complete darkness. Experimental manipulations in the dark were done under dim red light transmitted through a Kodak No. 1 safelight filter (transmittance >560 nm). No retinal degeneration or necroptosis markers were appreciably detected in 20 months or older C57BL6/N (Rpe65-Met450, crb1 positive) obtained from the NAI/NIH. All animal procedures and experiments were approved by the Animal Care and Use Committee of Weill Cornell Medical College in agreement with the guidelines established by the NIH Office of Laboratory Animal Welfare and the Association of Research for Vision and Ophthalmology (ARVO) statement for the use of animals in ophthalmic research. […]
Pharmacological treatment of mice. […] The exact volume of Mock reagent or Kira6 was determined by 10 μl Hamilton syringe. […]

pMLKL = assay: Fluorescence microscopy of pMLKL plasma membrane translocation in ARPE-19 monolayers; assay type: cell-based, Human; settings: ARPE-19 with A2E or ATRD
From the text: Chronic accumulation of polymeric pMLKL could account for progressive damage in pigmented retinas as they amass LF.

hfRPE = assay: Light-independent lipofuscin cell-death/viability assay in hfRPE; assay type: cell-based, Human
Procedure: Cell culture. Human retinal pigment epithelium (ARPE-19) cells were obtained from ATCC and were cultured in Dulbecco's modified Eagle's medium (DMEM) supplemented with 10% FBS and 1% penicillin/streptomycin. Cells were kept in an incubator with 5% C02 and 95% humidified air at 37° C. Human fetal RPE (hfRPE) cells from donors at 16 to 18 weeks gestation were cultured at 37° C., 5% C02 in RPE medium. To grow polarized hfRPE cells, the cells were seeded in 12 well transwell plate in 1% RPE medium with Rock kinase inhibitor for the first week. After the first week, cells were cultured in normal 1% RPE medium for 3 weeks. Cells were used in passage 1.
Real time monitoring of necrotic and apoptotic cell-death.

SMILES | effect on LF-induced phosphorylation and polymerization of MLKL (human MLKL) | infiltration of CD11b cells in the subretinal space ([1]; RPE-flat mounts from 25- to 27-month-old DKO mice) | effect on LF-induced pMLKL plasma membrane localization (pMLKL) | survival to LF in hfRPE (hfRPE) | Iba-1+ cells attached to the apical side of RPE ([1]; RPE-flat mounts, center to periphery)
N=C1S/C(=C\c2cn[nH]c2-c2ccc(F)cc2)C(=O)N1c1nccs1 [Nec7, Necrostatin 7] | reduced LF-induced phosphorylation and polymerization of MLKL | reduced the infiltration of CD11b cells | effectively reverted the pMLKL membrane localization pattern | promote survival to LF | 
CC(C)(C)c1nc(-c2ccc(NC(=O)Nc3cccc(C(F)(F)F)c3)c3ccccc23)c2c(N)nccn12 [KIRA6] | prevents phosphorylation and polymerization of MLKL |  | inhibition of pMLKL plasma membrane translocation | promote survival to LF | No Iba-1+ cells were detected
